“And” between values parts separate entries of the source, which are not always exact repeats. Equal entries are not always repeated.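 Dose response: 5 concentrations. Exposure: 48 h. Format: 96-well plates. Endpoint: linear interpolation; highest concentration if not reached. GI50 is the concentration that inhibits growth by half. TGI: total growth inhibition.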
Key:
Test in all cases: NCI anticancer screen, dose series, 48 h
[1] = test system: SNB-75 CNS
[2] = test system: SR leukemia
[3] = test system: HS 578T breast
[4] = test system: U251 CNS
[5] = test system: K-562 leukemia
[6] = test system: UACC-257 melanoma
[7] = test system: MALME-3M melanoma
[8] = test system: A498 renal
[9] = test system: CAKI-1 renal
[10] = test system: PC-3 prostate

NC(=O)c1cccc(Nc2nccc(Nc3cccc(F)c3)n2)c1
GI50 [1]: 6.22 µM
TGI [1]: > 23.4 µM
GI50 [2]: 7.1 µM
TGI [2]: > 25 µM
GI50 [3]: 6.23 µM
TGI [3]: > 25 µM
GI50 [4]: 14.3 µM
TGI [4]: > 25 µM
GI50 [5]: 8.13 µM
TGI [5]: > 25 µM
GI50 [6]: 12.2 µM
TGI [6]: > 25 µM
GI50 [7]: 10.3 µM
TGI [7]: > 25 µM
GI50 [8]: 4.3 µM
TGI [8]: 16 µM
GI50 [9]: 7.24 µM
TGI [9]: > 25 µM
GI50 [10]: 8.39 µM
TGI [10]: > 25 µM

CCCCCCCCCCCCCCCCCCNC(=O)[C@H]1CSC(c2cccs2)N1 (stereo partly specified)
GI50 [1]: 0.811 µM
TGI [1]: 1.58 µM
GI50 [2]: 0.94 µM
TGI [2]: 2.62 µM
GI50 [3]: 1.17 µM
TGI [3]: 2.98 µM
GI50 [4]: 0.929 µM
TGI [4]: 1.74 µM
GI50 [5]: 0.761 µM
TGI [5]: 2.14 µM
GI50 [6]: 1.25 µM
TGI [6]: 3.12 µM
GI50 [7]: 0.988 µM
TGI [7]: 2.01 µM
GI50 [8]: > 50 µM
TGI [8]: > 50 µM
GI50 [9]: 1.03 µM
TGI [9]: 2.09 µM
GI50 [10]: 1.75 µM
TGI [10]: > 50 µM

C=C1CC2(OC1=O)C(=O)N(CCCN1C(=O)C3(CC(=C)C(=O)O3)c3ccccc31)c1ccccc12 (stereo unspecified)
GI50 [1]: 3.44 µM
TGI [1]: 26.8 µM
GI50 [2]: 0.33 µM
TGI [2]: 1.35 µM
GI50 [3]: 3.43 µM
TGI [3]: 51.5 µM
GI50 [4]: 5.45 µM
TGI [4]: 18.7 µM
GI50 [5]: 0.385 µM
TGI [5]: 2.07 µM
GI50 [6]: 1.66 µM
TGI [6]: 3.95 µM
GI50 [7]: 1.7 µM
TGI [7]: 3.21 µM
GI50 [8]: 3.12 µM
TGI [8]: 17 µM
GI50 [9]: 1.17 µM
TGI [9]: 2.39 µM
GI50 [10]: 2.79 µM
TGI [10]: 10.3 µM

OB1OCc2cc(/C=C/c3cccc(C(F)(F)F)c3)ccc21
GI50 [1]: 0.852 µM
TGI [1]: 6.2 µM
GI50 [2]: 0.318 µM
TGI [2]: 11.6 µM
GI50 [3]: 4.49 µM
TGI [3]: 66.6 µM
GI50 [4]: 0.64 µM
TGI [4]: 17.3 µM
GI50 [5]: 0.93 µM
TGI [5]: 24.2 µM
GI50 [6]: 4.31 µM
TGI [6]: > 100 µM
GI50 [7]: 7.65 µM
TGI [7]: 54.3 µM
GI50 [8]: 1.13 µM
TGI [8]: 9.22 µM
GI50 [9]: 0.349 µM
TGI [9]: 10.2 µM
GI50 [10]: 1.88 µM
TGI [10]: > 100 µM

Cc1cc(Nc2nc(SCc3ccc(C(=O)Nc4ccc(F)cc4N)cc3)nn3cccc23)n[nH]1
GI50 [1]: 0.198 µM
TGI [1]: 35.4 µM
GI50 [2]: 0.068 µM
TGI [2]: 63.1 µM
GI50 [3]: 0.429 µM
TGI [3]: > 100 µM
GI50 [4]: 0.343 µM
TGI [4]: > 100 µM
GI50 [5]: 0.0487 µM
TGI [5]: > 100 µM
GI50 [6]: 3.69 µM
TGI [6]: 32.4 µM
GI50 [7]: 1.83 µM
TGI [7]: 25.7 µM
GI50 [8]: 0.623 µM
TGI [8]: 5.61 µM
GI50 [10]: 0.355 µM
TGI [10]: 44.2 µM

c1ccc(Cn2cnc3ccc(-c4nc(-c5ccc6c(c5)ncn6C5CCCCC5)cn5ccnc45)cc32)cc1
GI50 [2]: 1.68 µM
TGI [2]: > 100 µM
GI50 [3]: 2.71 µM
TGI [3]: > 100 µM
GI50 [8]: 1.86 µM
TGI [8]: 3.57 µM
GI50 [9]: 2.45 µM
TGI [9]: > 100 µM
GI50 [10]: 1.97 µM
TGI [10]: 7.55 µM

CCSc1nc(N)c2cn[nH]c2n1
GI50 [2]: 7.63 µM
TGI [2]: 39.6 µM
GI50 [3]: 22.2 µM
TGI [3]: 70.1 µM
GI50 [4]: 43.1 µM
TGI [4]: > 100 µM
GI50 [5]: 37.3 µM
TGI [5]: > 100 µM
GI50 [6]: 71.1 µM
TGI [6]: > 100 µM
GI50 [7]: 31.2 µM
TGI [7]: 67 µM
GI50 [8]: 20.7 µM
TGI [8]: 50.2 µM
GI50 [9]: 22.3 µM
TGI [9]: 76 µM
GI50 [10]: 19.8 µM
TGI [10]: 63.5 µM

c1ccc2nc3c(cc4ccccn43)nc2c1
GI50 [2]: 52.5 µM
TGI [2]: > 100 µM
GI50 [3]: 61.7 µM
TGI [3]: > 100 µM
GI50 [4]: 39.9 µM
TGI [4]: > 100 µM
GI50 [5]: > 100 µM
TGI [5]: > 100 µM
GI50 [6]: > 100 µM
TGI [6]: > 100 µM
GI50 [8]: 31.4 µM
TGI [8]: > 100 µM
GI50 [9]: 55.2 µM
TGI [9]: > 100 µM
GI50 [10]: 63.7 µM
TGI [10]: > 100 µM

C=C(CN1CCc2ccccc2C1)c1ccc(C(=O)Nc2ccccc2N)cc1
GI50 [2]: 0.484 µM
TGI [2]: > 50 µM
GI50 [3]: 3.7 µM
TGI [3]: 36.5 µM
GI50 [4]: 0.911 µM
TGI [4]: 4.8 µM
GI50 [5]: 2.32 µM
TGI [5]: > 11.3 µM
GI50 [6]: 1.55 µM
TGI [6]: 16.2 µM
GI50 [9]: 1.2 µM
TGI [9]: 7.69 µM
GI50 [10]: 2.01 µM
TGI [10]: > 50 µM

Cn1c2ccccc2c2c(=O)c3ccccc3[nH]c21
GI50 [1]: 84.7 µM
TGI [1]: > 100 µM
GI50 [2]: > 100 µM
TGI [2]: > 100 µM
GI50 [3]: > 100 µM
TGI [3]: > 100 µM
GI50 [4]: 35.8 µM
TGI [4]: > 100 µM
GI50 [5]: > 100 µM
TGI [5]: > 100 µM
GI50 [8]: 18 µM
TGI [8]: 64.8 µM
GI50 [9]: > 100 µM
TGI [9]: > 100 µM
GI50 [10]: 27.5 µM
TGI [10]: 73.2 µM

CC1(C)CC[C@H](C2=CC(=O)c3c(O)ccc(O)c3C2=O)O1
GI50 [1]: 8.53 µM and 2.87 µM and 0.95 µM
TGI [1]: 27.7 µM and 4.02 µM
GI50 [2]: 0.0764 µM
TGI [2]: 1.46 µM
TGI [3]: 6.78 µM and 7.42 µM
GI50 [4]: 3.71 µM and 2.51 µM and 1.5 µM
TGI [4]: 6.5 µM and 7.21 µM and 3.19 µM
GI50 [6]: 1.99 µM and 1.38 µM and 0.391 µM
TGI [6]: 4.77 µM and 2.67 µM and 1.08 µM
GI50 [7]: 1.15 µM and 1.26 µM and 0.201 µM
TGI [7]: 2.76 µM and 2.53 µM and 0.471 µM
GI50 [8]: 6.81 µM and 2.57 µM and 1.71 µM
TGI [8]: 13.6 µM and 6.05 µM and 3.58 µM
GI50 [9]: 1.11 µM and 1.38 µM and 0.48 µM
TGI [9]: 2.44 µM and 2.72 µM and 1.17 µM
TGI [10]: 7.34 µM and 4.16 µM

COCCOCCOCc1n(Cc2ccc3ccccc3n2)c2ccccc2[n+]1Cc1ccc2ccccc2c1
GI50 [1]: 0.312 µM
TGI [1]: 1.35 µM
GI50 [2]: 0.273 µM
TGI [2]: 1.07 µM
GI50 [3]: 0.964 µM
TGI [3]: 3.66 µM
GI50 [4]: 0.328 µM
TGI [4]: 1.26 µM
GI50 [5]: 0.291 µM
TGI [5]: 1.7 µM
GI50 [6]: 0.293 µM
TGI [6]: 0.877 µM
GI50 [7]: 0.275 µM
TGI [7]: 0.9 µM
GI50 [8]: 0.627 µM
TGI [8]: 2.83 µM
GI50 [10]: 0.352 µM
TGI [10]: 2.29 µM

Cn1c(/C(C#N)=C/c2ccc3ccccc3c2)cc2ccccc21
GI50 [1]: 0.0628 µM
TGI [1]: > 92.7 µM
GI50 [2]: 0.114 µM
TGI [2]: > 100 µM
GI50 [3]: 0.162 µM
TGI [3]: > 100 µM
GI50 [4]: 0.249 µM
TGI [4]: > 100 µM
GI50 [5]: 0.0455 µM
TGI [5]: > 100 µM
GI50 [6]: > 100 µM
TGI [6]: > 100 µM
GI50 [8]: 0.0409 µM
TGI [8]: 0.552 µM
GI50 [9]: 0.0605 µM
TGI [9]: > 100 µM
GI50 [10]: 0.22 µM
TGI [10]: > 100 µM

CN(C)Cc1c[nH]c2c(NCCN)c3c(c(NCCN)c12)C(=O)c1ccccc1C3=O
GI50 [1]: 6.13 µM
TGI [1]: 17 µM
TGI [2]: > 100 µM
GI50 [3]: 3.38 µM
TGI [3]: 10.9 µM
GI50 [4]: 0.394 µM
TGI [4]: 1.87 µM
GI50 [5]: 0.516 µM
TGI [5]: > 100 µM
GI50 [6]: 6.18 µM
TGI [6]: > 23.8 µM
GI50 [7]: 3.99 µM
TGI [7]: 18.7 µM
GI50 [9]: 20.8 µM
TGI [9]: 41.7 µM
GI50 [10]: 2.34 µM
TGI [10]: 8.42 µM
